Here are results for 1 compound from PMC11876601 (Molecular Systems Biology, 2025).

One experiment relates to Colo-357. Kind of experiment: cells. The note with it: Homo sapiens, COLO357, 72 h, read-out: EC50 [nM]. Also on record: ATPlite luminescence viability of PDAC cell lines, 11-dose single-agent curves, 4-parameter fit. The method, boiled down:
(§1)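 cells (1000 to 5000 per well) seeded 24 h before drug addition in a combination screen at 0.2% final DMSO. Controls were drug-free wells (negative) and 5 µM staurosporine (positive).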

The next experiment has as its system FAMPAC. Kind of experiment: cells. The note with it: 72 h, read-out: EC50 [nM]. Also on record: ATPlite luminescence viability of PDAC cell lines, 11-dose single-agent curves, 4-parameter fit. A digest of the protocol:
as §1

For the next experiment, the system named is Suit2-07. Kind of experiment: cells. As to conditions: 72 h, read-out: EC50 [nM]. Also on record: ATPlite luminescence viability of PDAC cell lines, 11-dose single-agent curves, 4-parameter fit. The method, boiled down:
as §1

The test system of the next experiment is HPDE. Briefly: cells. Also on record: ATPlite luminescence viability of PDAC cell lines, 11-dose single-agent curves, 4-parameter fit. The note with it: HPDE, 72 h, read-out: EC50 [nM]. The method, boiled down: as §1
The test system of a further experiment is Dan-G. Kind of experiment: cells. Also on record: ATPlite luminescence viability of PDAC cell lines, 11-dose single-agent curves, 4-parameter fit. As to conditions: 72 h, read-out: EC50 [nM]. A digest of the protocol: as §1
A further experiment has as its system BxPC-3. Briefly: cells. Also on record: ATPlite luminescence viability of PDAC cell lines, 11-dose single-agent curves, 4-parameter fit. As to conditions: Homo sapiens, BXPC-3, 72 h, read-out: EC50 [nM]. A digest of the protocol:
as §1

A further experiment relates to PANC-1. Kind of experiment: cells. Also on record: Viability of PDAC cell lines, ATPlite luminescence, 11-dose single-agent curve fit. As to conditions: Homo sapiens, PANC-1, 72 h, read-out: EC50 [nM]. A digest of the protocol: (§2)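 cells (1000 to 5000 per well) seeded 24 h before drug addition in a screen at 0.2% final DMSO. Controls were drug-free wells (negative) and 5 µM staurosporine (positive).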

In the next experiment the test system is HuP-T4. Kind of experiment: cells. The note with it: Homo sapiens, HuP-T4, 72 h, read-out: EC50 [nM]. Also on record: Viability of PDAC cell lines, ATPlite luminescence, 11-dose single-agent curve fit. The method, boiled down:
as §2

The subject of a further experiment is MiaPaCa-2. Kind of experiment: cells. Also on record: Viability of PDAC cell lines, ATPlite luminescence, 11-dose single-agent curve fit. As to conditions: Homo sapiens, MIA PaCa-2, 72 h, read-out: EC50 [nM]. The method, boiled down: as §2
A further experiment deals with PaTu-8988-T. Briefly: cells. Also on record: Viability of PDAC cell lines, ATPlite luminescence, 11-dose single-agent curve fit. As to conditions: Homo sapiens, PaTu 8988t, 72 h, read-out: EC50 [nM]. The method, boiled down: as §2
For another experiment, the system named is Capan-1. Briefly: cells. Also on record: Viability of PDAC cell lines, ATPlite luminescence, 11-dose single-agent curve fit. As to conditions: Homo sapiens, CAPAN-1, 72 h, read-out: EC50 [nM]. The method, boiled down: as §2
The next experiment relates to AsPC-1. Briefly: cells. Also on record: Viability of PDAC cell lines, ATPlite luminescence, 11-dose single-agent curve fit. As to conditions: Homo sapiens, ASPC1, 72 h, read-out: EC50 [nM]. A digest of the protocol:
as §2

Another experiment has as its system PSN-1. Briefly: cells. As to conditions: Homo sapiens, PSN1, 72 h, read-out: EC50 [nM]. Also on record: Viability of PDAC cell lines, ATPlite luminescence, 11-dose single-agent curve fit. The method, boiled down:
as §2

Another experiment deals with advanced PDAC patients. Also on record: method as in Moore et al, 2007. The note with it: Erlotinib + GEM, ref Moore et al, 2007; cited from earlier work.

The term EC50 denotes the concentration needed to bring the measured effect to its halfway point. In the case of `C#Cc1cccc(Nc2ncnc3cc(OCCOC)c(OCCOC)cc23)c1` [Erlotinib], the EC50 with Colo-357 is 1040 nM; in the experiment with FAMPAC, 3940 nM; in the experiment with Suit2-07 it was above 10000 nM; in the experiment on HPDE, 552 nM; in the experiment with Dan-G, 630 nM; in the experiment on BxPC-3 it was 2060 nM. The EC50 is 36.8 nM in the experiment with PANC-1; 8400 nM with HuP-T4; 4050 nM in the experiment with MiaPaCa-2; 5260 nM with PaTu-8988-T; 2940 nM in the experiment on Capan-1; above 10000 nM with AsPC-1. Also, in the experiment on PSN-1, the EC50 was 5920 nM. The “improvement of overall survival over GEM alone” value in the experiment on advanced PDAC patients is listed as “two weeks”.
